Experimental data published in patent US10800777B2, “Polymorphic forms of VENCLEXTA” (Mylan Laboratories Limited, priority 2016, dated 2020).
Entries after “also recorded” stand apart in the source; their conditions may differ. One block for each compound: values may come before it.

Test: Storage stability of venetoclax polymorphs, analyzed by PXRD for polymorph integrity
Type: physicochemical
Protocol: The present invention provides new polymorphs of venetoclax which may be characterized by powder X-ray diffraction (PXRD). Thus, samples of each disclosed polymorph were analyzed by PXRD on a BRUKER D-8 Discover powder diffractometer equipped with a goniometer of θ/2θ configuration and Lynx Eye detector. The Cu-anode X-ray tube was operated at 40 kV and 30 mA. The experiments were conducted over the […] of 2.0°-50.0°, 0.030° step size, and 0.4 seconds step time.
Thus, the stability of samples of amorphous venetoclax, as well as crystalline forms M9, M10, and M21 were stored at 40° C./75% relative humidity (RH) and at 25° C./60% relative humidity (RH) for 3 months. The samples were analyzed by PXRD for polymorph integrity.

PXRD (polymorph integrity) (at 25° C./60% RH, Initial, listed as M21): Crystalline
PXRD (polymorph integrity) (at 40° C./75% RH, Initial, listed as M21): Crystalline
SMILES: CC1(C)CCC(CN2CCN(c3ccc(C(=O)NS(=O)(=O)c4ccc(NCC5CCOCC5)c([N+](=O)[O-])c4)c(Oc4cnc5[nH]ccc5c4)c3)CC2)=C(c2ccc(Cl)cc2)C1 [form M21, 4-[4-[[2-(4-chlorophenyl)-4,4-dimethylcyclohexen-1-yl]methyl]piperazin-1-yl]-N-[3-nitro-4-(oxan-4-ylmethylamino)phenyl]sulfonyl-2-(1H-pyrrolo[2,3-b]pyridin-5-yloxy)benzamide]
PXRD (polymorph integrity) (at 25° C./60% RH, 3 months, listed as M21): no change in PXRD pattern; also recorded: Stable
PXRD (polymorph integrity) (at 40° C./75% RH, 3 months, listed as M21): no change in PXRD pattern; also recorded: Stable

PXRD (polymorph integrity) (at 25° C./60% RH, Initial, listed as M10): Crystalline
PXRD (polymorph integrity) (at 40° C./75% RH, Initial, listed as M10): Crystalline
SMILES: CC1(C)CCC(CN2CCN(c3ccc(C(=O)NS(=O)(=O)c4ccc(NCC5CCOCC5)c([N+](=O)[O-])c4)c(Oc4cnc5[nH]ccc5c4)c3)CC2)=C(c2ccc(Cl)cc2)C1 [form M10, 4-[4-[[2-(4-chlorophenyl)-4,4-dimethylcyclohexen-1-yl]methyl]piperazin-1-yl]-N-[3-nitro-4-(oxan-4-ylmethylamino)phenyl]sulfonyl-2-(1H-pyrrolo[2,3-b]pyridin-5-yloxy)benzamide]
PXRD (polymorph integrity) (at 25° C./60% RH, 3 months, listed as M10): no change in PXRD pattern; also recorded: Stable
PXRD (polymorph integrity) (at 40° C./75% RH, 3 months, listed as M10): no change in PXRD pattern; also recorded: Stable

PXRD (polymorph integrity) (at 25° C./60% RH, 1 months): Stable
PXRD (polymorph integrity) (at 25° C./60% RH, 2 months): Stable
PXRD (polymorph integrity) (at 25° C./60% RH, 3 months): Stable
PXRD (polymorph integrity) (at 25° C./60% RH, 3 months, listed as amorphous venetoclax): no change in PXRD pattern
PXRD (polymorph integrity) (at 25° C./60% RH, 15 days): Stable
PXRD (polymorph integrity) (at 25° C./60% RH, Initial): Amorphous
PXRD (polymorph integrity) (at 40° C./75% RH, 1 months): Stable
PXRD (polymorph integrity) (at 40° C./75% RH, 2 months): Stable
PXRD (polymorph integrity) (at 40° C./75% RH, 3 months): Stable
PXRD (polymorph integrity) (at 40° C./75% RH, 3 months, listed as amorphous venetoclax): no change in PXRD pattern
PXRD (polymorph integrity) (at 40° C./75% RH, 15 days): Stable
PXRD (polymorph integrity) (at 40° C./75% RH, Initial): Amorphous
SMILES: CC1(C)CCC(CN2CCN(c3ccc(C(=O)NS(=O)(=O)c4ccc(NCC5CCOCC5)c([N+](=O)[O-])c4)c(Oc4cnc5[nH]ccc5c4)c3)CC2)=C(c2ccc(Cl)cc2)C1 [Amorphous, 4-[4-[[2-(4-chlorophenyl)-4,4-dimethylcyclohexen-1-yl]methyl]piperazin-1-yl]-N-[3-nitro-4-(oxan-4-ylmethylamino)phenyl]sulfonyl-2-(1H-pyrrolo[2,3-b]pyridin-5-yloxy)benzamide]

PXRD (polymorph integrity) (at 25° C./60% RH, Initial, listed as M9): Crystalline
PXRD (polymorph integrity) (at 40° C./75% RH, Initial, listed as M9): Crystalline
SMILES: CC1(C)CCC(CN2CCN(c3ccc(C(=O)NS(=O)(=O)c4ccc(NCC5CCOCC5)c([N+](=O)[O-])c4)c(Oc4cnc5[nH]ccc5c4)c3)CC2)=C(c2ccc(Cl)cc2)C1 [form M9, 4-[4-[[2-(4-chlorophenyl)-4,4-dimethylcyclohexen-1-yl]methyl]piperazin-1-yl]-N-[3-nitro-4-(oxan-4-ylmethylamino)phenyl]sulfonyl-2-(1H-pyrrolo[2,3-b]pyridin-5-yloxy)benzamide]
PXRD (polymorph integrity) (at 25° C./60% RH, 3 months, listed as M9): no change in PXRD pattern; also recorded: Stable
PXRD (polymorph integrity) (at 40° C./75% RH, 3 months, listed as M9): no change in PXRD pattern; also recorded: Stable
